# Source: patent publication US10221163B2 (priority 2015, dated 2019)
# Read-outs that look alike come from different tables or passages of the source.
# Assays:
# [1] = biological target: IMP-1 (Serratia marcescens, UniProt P52699); assay: biochemical; type: biochemical; details: fluorescence assay, CCF2-FA substrate, 2 pM enzyme, 2 hours at 25° C.; read-out: IMP-1 IC50
# How it was run: (§1)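 Two-hour, 25° C incubation of enzyme with inhibitor and CCF2-FA (7-hydroxycoumarin–cephalosporin–fluorescein). Fluorescence read-out; IC50 via 4-parameter fit.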
# [2] = biological target: NDM-1 (Klebsiella pneumoniae, UniProt C7C422); assay: biochemical; type: biochemical; details: fluorescence assay, CCF2-FA substrate, 1 pM enzyme, 2 hours at 25° C.; read-out: NDM-1 IC50
# How it was run: as §1
# [3] = biological target: VIM-1 (Pseudomonas aeruginosa (strain ATCC 15692 / DSM 22644 / CIP 104116 / JCM 14847 / LMG 12228 / 1C / PRS 101 / PAO1), UniProt A0A0F7KYQ8); assay: biochemical; details: fluorescence assay, CCF2-FA substrate, 30 pM enzyme, 2 hours at 25° C.; read-out: VIM-1 IC50
# How it was run: as §1
# [4] = tested on: Escherichia coli expressing NDM-1 (CLB30005, CLB30016); type: cell-based; details: with imipenem 1 μg/ml; for Escherichia coli expressing NDM-1 (CLB30016) MITC95: 95% inhibition of bacterial growth; for Escherichia coli MITC95: NDM-1 strain, 95% inhibition of growth
# How it was run: (§2)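 Growth by absorbance after 22–24 h at 35°C defined the read-out, with imipenem fixed at 1 μg/ml alongside compound. Inocula came from overnight blood-agar colonies at 35°C, resuspended in saline and diluted 1:100 in 1.1×CAMHB.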
# [5] = tested on: Klebsiella pneumoniae expressing VIM-1 (IHMA599644); type: cell-based; details: for Klebsiella pneumoniae expressing VIM-1 (IHMA599644) MITC95: with imipenem 1 μg/ml, 95% inhibition of bacterial growth; for Klebsiella pneumoniae MITC95: VIM-1 strain IHMA599644, with imipenem 1 μg/ml, 95% inhibition of growth
# How it was run: as §2
# [6] = tested on: Serratia marcescens expressing IMP-1 (CL5741); type: cell-based; details: for Serratia marcescens expressing IMP-1 (CL5741) MITC95: with imipenem 1 μg/ml, 95% inhibition of bacterial growth; for Serratia marcescens MITC95: IMP-1 strain CL5741, with imipenem 1 μg/ml, 95% inhibition of growth
# How it was run: as §2
# [7] = tested on: Pseudomonas aeruginosa efflux+ (MB9798), IMP-1; type: cell-based; design: Concentration of metallo-β-lactamase inhibitor which restores susceptibility of efflux + (MB9798) strain to imipenem: unit not given here; details: C, D serine β-lactamase inhibitor closely related to relebactam; for P. aeruginosa expressing IMP-1, efflux + (MB9798) MITC95: concentration restoring susceptibility to imipenem at 2 μg/mL in the presence of a class A
# How it was run: (§3)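 Microbroth MIC tests in PAO1-background strains with fixed imipenem and/or ceftazidime, usually at the CLSI breakpoint, plus fixed class A/C β-lactamase inhibitor against AmpC. MBL inhibitor titrated; concentration restoring susceptibility recorded and compared as fold difference between efflux+ MB9798 and efflux− MB9799.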
# [8] = tested on: Pseudomonas aeruginosa efflux− (MB9799), IMP-1; type: cell-based; details: C, D serine β-lactamase inhibitor closely related to relebactam; for P. aeruginosa expressing IMP-1, efflux − (MB9799) MITC95: concentration restoring susceptibility to imipenem at 2 μg/mL in the presence of a class A
# How it was run: as §3
# [9] = tested on: Pseudomonas aeruginosa MB9798 vs MB9799
# How it was run: as §3
# [10] = ratio MITC95 PA_9798/MITC95 PA_9799
# Sequence of IMP-1 (P52699 whole entry, looked up, species assumed): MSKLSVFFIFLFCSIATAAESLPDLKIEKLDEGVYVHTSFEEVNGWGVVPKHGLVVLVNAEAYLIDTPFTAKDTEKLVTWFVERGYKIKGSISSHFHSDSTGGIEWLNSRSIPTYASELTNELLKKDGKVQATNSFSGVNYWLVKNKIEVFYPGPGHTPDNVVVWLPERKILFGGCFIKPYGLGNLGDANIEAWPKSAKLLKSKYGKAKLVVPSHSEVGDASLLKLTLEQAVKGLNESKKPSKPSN
# Sequence of NDM-1 (C7C422 whole entry, looked up, species assumed): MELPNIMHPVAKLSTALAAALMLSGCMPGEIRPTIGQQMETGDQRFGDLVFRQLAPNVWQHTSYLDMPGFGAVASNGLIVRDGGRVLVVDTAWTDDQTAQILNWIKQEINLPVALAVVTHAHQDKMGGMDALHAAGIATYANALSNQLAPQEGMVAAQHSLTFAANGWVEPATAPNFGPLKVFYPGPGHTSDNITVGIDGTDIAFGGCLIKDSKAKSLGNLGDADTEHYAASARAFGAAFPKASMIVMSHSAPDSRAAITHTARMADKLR
compound,measurement,setting,value
"CN(C)CCNS(=O)(=O)c1ccc(-c2cccc3sc(N)nc23)c(-c2nnn[nH]2)c1S(N)(=O)=O [Example 22, 4-(2-amino-1,3-benzothiazol-4-yl)-N^1-[2-(dimethylamino)ethyl]-3-(1H-tetrazol-5-yl)benzene-1,2-disulfonamide]",IC50,[1],0.413 nM
same,IC50,[2],0.0348 nM
same,IC50,[3],0.233 nM
same,Escherichia coli expressing NDM-1 (CLB30016) MITC95,[4],6.25 µM
same,Klebsiella pneumoniae expressing VIM-1 (IHMA599644) MITC95,[5],3.125 µM
same,Serratia marcescens expressing IMP-1 (CL5741) MITC95,[6],3.125 µM
same,"P. aeruginosa expressing IMP-1, efflux + (MB9798) MITC95",[7],1.563 µM
same,"P. aeruginosa expressing IMP-1, efflux − (MB9799) MITC95",[8],1.563 µM
same,Efflux ratio,[9]; [10],1.00
NC[C@H](N)CNS(=O)(=O)c1ccc(-c2cccc(-c3c[nH]c(N)n3)c2)c(-c2nn[nH]n2)c1S(N)(=O)=O [Example 434],IC50,[1],1.53 nM
same,IC50,[2],0.2 nM
same,IC50,[3],0.337 nM
same,Escherichia coli MITC95,[4],0.7813 µM
same,Klebsiella pneumoniae MITC95,[5],1.563 µM
same,Serratia marcescens MITC95,[6],1.563 µM
same,Concentration of metallo-β-lactamase inhibitor which restores susceptibility of efflux + (MB9798) strain to imipenem,"[7]; efflux+ MB9798, imipenem at 2 μg/mL, in the presence of a class A",1.563
same,Concentration of metallo-β-lactamase inhibitor which restores susceptibility of efflux − (MB9799) strain to imipenem,"[8]; efflux− MB9799, imipenem at 2 μg/mL, in the presence of a class A",0.7813
same,Efflux ratio,"[9]; fold difference between efflux+ (MB9798) and efflux− (MB9799) strains, imipenem at 2 μg/mL",2.00
"NCCNS(=O)(=O)c1ccc(-c2cccc3sc(N)nc23)c(-c2nn[nH]n2)c1S(N)(=O)=O [Example 145, 4-(2-aminobenzo[d]thiazol-4-yl)-N1-(2-aminoethyl)-3-(2H-tetrazol-5-yl)benzene-1,2-disulfonamide]",IC50,[1],0.221 nM
same,IC50,[2],0.0343 nM
same,IC50,[3],0.182 nM
same,Escherichia coli expressing NDM-1 (CLB30016) MITC95,[4],0.7813 µM
same,Klebsiella pneumoniae expressing VIM-1 (IHMA599644) MITC95,[5],1.563 µM
same,Serratia marcescens expressing IMP-1 (CL5741) MITC95,[6],0.7813 µM
same,"P. aeruginosa expressing IMP-1, efflux + (MB9798) MITC95",[7],0.3906 µM
same,"P. aeruginosa expressing IMP-1, efflux − (MB9799) MITC95",[8],0.7813 µM
same,Efflux ratio,[9]; [10],0.50
"CN(C1CCS(=O)(=O)C1)S(=O)(=O)c1ccc(-c2cccc3sc(N)nc23)c(-c2nnn[nH]2)c1S(N)(=O)=O (stereo not drawn) [Example 41, 4-(2-amino-1,3-benzothiazol-4-yl)-N^1-(1,1-dioxidotetrahydrothiophen-3-yl)-N~1~-methyl-3-(1H-tetrazol-5-yl)benzene-1,2-disulfonamide]",IC50,[1],0.81 nM
same,IC50,[2],0.938 nM
same,IC50,[3],1.75 nM
same,Escherichia coli expressing NDM-1 (CLB30016) MITC95,[4],25 µM
same,Klebsiella pneumoniae expressing VIM-1 (IHMA599644) MITC95,[5],25 µM
same,Serratia marcescens expressing IMP-1 (CL5741) MITC95,[6],6.25 µM
same,"P. aeruginosa expressing IMP-1, efflux + (MB9798) MITC95",[7],25 µM
same,"P. aeruginosa expressing IMP-1, efflux − (MB9799) MITC95",[8],3.125 µM
same,Efflux ratio,[9]; [10],8.00
"NCCNS(=O)(=O)c1ccc(-c2cccnc2N)c(-c2nn[nH]n2)c1S(N)(=O)=O [Example 358, N1-(2-aminoethyl)-4-(2-aminopyridin-3-yl)-3-(2H-tetrazol-5-yl)benzene-1,2-disulfonamide]",IC50,[1],4.05 nM
same,IC50,[2],0.319 nM
same,IC50,[3],0.205 nM
same,Escherichia coli MITC95,[4],0.2441 µM
same,Klebsiella pneumoniae MITC95,[5],1.563 µM
same,Serratia marcescens MITC95,[6],0.3906 µM
same,"P. aeruginosa expressing IMP-1, efflux + (MB9798) MITC95",[7],1.563 µM
same,"P. aeruginosa expressing IMP-1, efflux − (MB9799) MITC95",[8],0.7813 µM
same,Efflux ratio,[9]; [10],2.00
"CN1CCC(N(C)S(=O)(=O)c2ccc(-c3cccc4sc(N)nc34)c(-c3nnn[nH]3)c2S(N)(=O)=O)C1 (stereo not drawn) [Example 54, 4-(2-amino-1,3-benzothiazol-4-yl)-N1-methyl-N1-(1-methylpyrrolidin-3-yl)-3-(1H-tetrazol-5-yl)benzene-1,2-disulfonamide]",IC50,[1],1.93 nM
same,IC50,[2],0.19 nM
same,IC50,[3],3.64 nM
same,Escherichia coli expressing NDM-1 (CLB30016) MITC95,[4],6.25 µM
same,Klebsiella pneumoniae expressing VIM-1 (IHMA599644) MITC95,[5],6.25 µM
same,Serratia marcescens expressing IMP-1 (CL5741) MITC95,[6],3.125 µM
same,"P. aeruginosa expressing IMP-1, efflux + (MB9798) MITC95",[7],6.25 µM
same,"P. aeruginosa expressing IMP-1, efflux − (MB9799) MITC95",[8],3.125 µM
same,Efflux ratio,[9]; [10],2.00
